Measurements reported in patent publication US6764858B2, “Methods for creating a compound library” (Pharmacia & Upjohn Company, priority 1999, dated 2004).

Target: T1, thrombin (Homo sapiens, UniProt P00734)
T1 construct: purchased Sigma
Assay: WaterLOGSY NMR screen of the functional genomics library against thrombin
Format: binding
Conditions: 133 μM compound, 7 μM thrombin, 100 mM phosphate buffer, pH6.5
Experimental: Several proteins with known functions were used for validating the screening library. The proteins were dissolved in 100 mM phosphate buffer, pH 6.5 to make stock solutions which were further diluted and mixed with the compound mixtures to make final concentration of 5-7 μM. The concentration of compounds was about 133 μM in the final solution. The ratio of compound to protein concentrations was about 20:1.
NMR experiments for validating the functional genomics library with proteins of known functions were conducted on a Bruker Avance 600 MHz spectrometer equipped with 5 mm FISEI flow probe and Gilson 215 liquid sample handler. Binding was detected using the WaterLOGSY experiment.
The functional genomics screening library was screened against thrombin obtained from Sigma, which is one of the test proteins used for validation of the library. One assay mixture contained 133 μM of N-alpha-dansyl-DL-tryptophan cyclohexylammonium salt (DPS) and 7 μM of thrombin in 100 mM phosphate buffer, pH6.5. This mixture also contained Benzyl (S)-(−)-2-(1-pyrrolidinylcarbonyl)-1-pyrrolidinecarboxylate (ZPR), Chymostatin A (CSA), Tetrahydrofolic acid (C2F), Haloperidol (THK). Referring to FIG. 17, the reference NMR spectrum of DPS is in the top panel while the WaterLOGSY spectrum of the mixture is shown in the bottom panel. The positive peak in the WaterLOGSY spectrum indicates binding of DPS to thrombin. […]

- binding to thrombin (positive peak in WaterLOGSY spectrum): binding
SMILES: CN(C)c1cccc2c(S(=O)(=O)NC(Cc3c[nH]c4ccccc34)C(=O)O)cccc12.NC1CCCCC1 (racemic) [DPS, N-alpha-dansyl-DL-tryptophan cyclohexylammonium salt]
